# Measured values: patent publication US20250109127A1, “METHODS OF USE OF PHENOXYPROPYLAMINE COMPOUNDS TO TREAT DEPRESSION” (Minerva Neurosciences, Inc., priority 2013, published 2025)
# Values joined by “and” are separate entries in the source; they are usually repeats but may differ in a detail not shown here. Identical values can stand only once. Counter-ions that a name gives are not always drawn.
# Tested on: 5-HIAA release in the rat prefrontal cortex
# Experiment: Microdialysis: 5-HIAA release in prefrontal cortex after I.P. administration
# Assay type: in vivo
# Conditions: for 5-HIAA release (% of basal levels) measured in dialysates, MEAN / 5-HIAA (% of respective basal) MEAN: n = 8; for 5-HIAA release (% of basal levels) measured in dialysates: individual animals, hydrochloride, 3 mg/kg; for 5-HIAA (% of respective basal) MEAN: SON-117 group 0.1 mg/kg I.P.
# Procedure: The aim of the study was to evaluate, using microdialysis, the effects of an intraperitoneal (I.P.) administration in rats of three different doses of SON-117 on dopamine and its metabolites, serotonin and its metabolite (5-HIAA), and norepinephrine levels in prefrontal cortex.
# Thirty-two adult male Wistar rats were used for the whole study (4 groups of eight animals planned for the study, Table 1).
# Surgery was performed on rats weighing about 300 g at the beginning of the experiments. Rats were anaesthetized with Ketamine (50 mg/kg) & Xylazine (15 mg/kg) by intramuscular administration. The animals were placed in a stereotaxic apparatus in the flat-skull position at a constant setting of −3.3 mm between ear bars and the incisor bar. The animals were treated with a local anesthesic (xylocaine 1%, Astra Zeneca) and an analgesic (Temgesic, from Schering Plough, 0.05 mg/kg, s.c.). A rostrocaudal midline incision was made with a lancet to expose the dorsal skull surface. The “stereotaxic zero” was defined by the Bregma in accordance with Paxinos and Watson's atlas (1986). A hole was drilled in the skull with a drill and the meninges were pierced with a sterile needle to implant a CMA12 guide cannula which later received the dialysis probe.
# Coordinates used for implanting guide cannula in prefrontal cortex from Bregma were anteroposterior 3.7 mm, mediolateral 0.8 mm, and dorsoventral −2 mm (top of the probe was at −5 mm). The guide cannula was fixed to the skull with two stainless steel screws (1.88 mm outside diameter) anchored. An application of dental cement was added. A plastic collar allowed each animal to be tethered to a Swivel assembly of the CMA 120 awake animal system. Following surgery, rats were kept in individual cages and allowed to recover for a minimum of 3-5 days before the experimentation. The rats were handled and put in plastic bowl for 10 min at least every day to habituate the animals to their new environment for the dialysis. An I.P. administration with saline was also performed every day.
# Dialysis probes (CMA12/3 mm, membrane, 20 kD cut-off, Carnegie Medicine, Stockholm, Sweden), were carefully washed before inserting into the guide cannula. The wash was performed with the artificial cerebrospinal fluid (aCSF) medium (NaCl 147 mM, KCl 2.7 mM, CaCl2 1.2 mM, MgCl2 0.85 mM) at room temperature. The dialysis system was then equilibrated at 20° C. at a perfusion rate of 1 μl/min with a Carnegie pump (CMA100). All catheters (FEP tubing, internal volume of 1.2 μl/10 cm, and tubing adaptors) used for microdialysis were treated in the same conditions.
# The probes duly prepared were inserted into the guide cannula and the CMA120 Swivel assembly secured to the animal using a plastic collar. Flow through the dialysis probe with aCSF was maintained at a rate of 1 μl/min during the whole experimentation. The first four fractions (corresponding to 2 hours) were discarded to avoid the effects of parenchymal disturbance and to ensure that an approximate steady-state level was reached. Fractions were then collected over a period of 8.5 h during which time the animals remained quiet. The dialysates were automatically collected with an autosampler (microfraction collector CMA 140, Carnegie Medicin) and stored at −80° C. until analysis. […] Perfusion was then maintained for 7 hours with aCSF. The dialysates (30 μl) were collected into 300 μl vials, transferred into dry ice and then kept frozen (−80° C.) until analysis. Frozen samples were shipped to a partner for analysis. At the end of the microdialysis study, a PBS with colored ink was perfused through the probe in order to visualize the dialyzed area.
# Catecholamine assay: Concentrations of dopamine, DOPAC, HVA, 5-HIAA, 5-HT, and norepinephrin were determined for each sample by HPLC coupled with electrochemical detection.
# [1] = SON-117 3 mg/kg IP, T1 h 30-T2 h
# [2] = SON-117 3 mg/kg IP, T1 h-T1 h 30
# [3] = SON-117 3 mg/kg IP, T2 h 30-T3 h
# [4] = SON-117 3 mg/kg IP, T2 h-T2 h 30
# [5] = SON-117 3 mg/kg IP, T3 h 30-T4 h
# [6] = SON-117 3 mg/kg IP, T3 h-T3 h 30
# [7] = SON-117 3 mg/kg IP, T4 h 30-T5 h
# [8] = SON-117 3 mg/kg IP, T4 h-T4 h 30
# [9] = SON-117 3 mg/kg IP, T5 h 30-T6 h
# [10] = SON-117 3 mg/kg IP, T5 h-T5 h 30
# [11] = SON-117 3 mg/kg IP, T6 h 30-T7 h
# [12] = SON-117 3 mg/kg IP, T6 h-T6 h 30
smiles,measurement,setting,value
"Cc1nnc(-c2cc3c(OC[C@@H](O)CN4CCC(c5ccc(Cl)c(Cl)c5)CC4)cccc3o2)o1 [SON-117, (S)-1-(4-(3,4-dichlorophenyl)piperidino)-3-(2-(5-methyl-1,3,4-oxadiazol-2-yl)benzo(b)furan-4-yloxy)-2-propanol hydrochloride]","5-HIAA release (% of basal levels) measured in dialysates, MEAN","SON-117 3 mg/kg IP, T0-T30 min",100.01 % of basal levels
same,"5-HIAA release (% of basal levels) measured in dialysates, MEAN","SON-117 3 mg/kg IP, T30-T1 h",103.84 % of basal levels
same,5-HIAA release (% of basal levels) measured in dialysates,"SON-117 3 mg/kg IP, T30-T1 h",107.55 % of basal levels and 89.33 % of basal levels and 88.65 % of basal levels and 110.35 % of basal levels and 117.87 % of basal levels and 100.51 % of basal levels and 111.18 % of basal levels and 105.33 % of basal levels
same,"5-HIAA release (% of basal levels) measured in dialysates, MEAN",[1],88.78 % of basal levels
same,5-HIAA release (% of basal levels) measured in dialysates,[1],94.24 % of basal levels and 92.41 % of basal levels and 78.82 % of basal levels and 101.67 % of basal levels and 75.13 % of basal levels and 85.33 % of basal levels and 91.45 % of basal levels and 91.21 % of basal levels
same,"5-HIAA release (% of basal levels) measured in dialysates, MEAN",[2],98.52 % of basal levels
same,5-HIAA release (% of basal levels) measured in dialysates,[2],108.67 % of basal levels and 95.26 % of basal levels and 83.80 % of basal levels and 110.78 % of basal levels and 108.78 % of basal levels and 87.31 % of basal levels and 96.27 % of basal levels and 97.27 % of basal levels
same,"5-HIAA release (% of basal levels) measured in dialysates, MEAN",[3],84.99 % of basal levels
same,5-HIAA release (% of basal levels) measured in dialysates,[3],110.25 % of basal levels and 75.66 % of basal levels and 71.07 % of basal levels and 93.25 % of basal levels and 73.18 % of basal levels and 83.94 % of basal levels and 86.24 % of basal levels and 86.32 % of basal levels
same,"5-HIAA release (% of basal levels) measured in dialysates, MEAN",[4],85.83 % of basal levels
same,5-HIAA release (% of basal levels) measured in dialysates,[4],99.74 % of basal levels and 84.01 % of basal levels and 68.40 % of basal levels and 89.07 % of basal levels and 81.80 % of basal levels and 77.11 % of basal levels and 98.05 % of basal levels and 88.46 % of basal levels
same,"5-HIAA release (% of basal levels) measured in dialysates, MEAN",[5],82.25 % of basal levels
same,5-HIAA release (% of basal levels) measured in dialysates,[5],103.09 % of basal levels and 75.36 % of basal levels and 71.57 % of basal levels and 91.17 % of basal levels and 72.73 % of basal levels and 78.31 % of basal levels and 82.53 % of basal levels and 83.23 % of basal levels
same,"5-HIAA release (% of basal levels) measured in dialysates, MEAN",[6],83.71 % of basal levels
same,5-HIAA release (% of basal levels) measured in dialysates,[6],100.53 % of basal levels and 78.33 % of basal levels and 73.76 % of basal levels and 91.10 % of basal levels and 69.55 % of basal levels and 76.15 % of basal levels and 84.48 % of basal levels and 95.78 % of basal levels
same,"5-HIAA release (% of basal levels) measured in dialysates, MEAN",[7],75.41 % of basal levels
same,5-HIAA release (% of basal levels) measured in dialysates,[7],90.13 % of basal levels and 63.71 % of basal levels and 68.51 % of basal levels and 75.52 % of basal levels and 72.02 % of basal levels and 83.31 % of basal levels and 83.67 % of basal levels and 66.44 % of basal levels
same,"5-HIAA release (% of basal levels) measured in dialysates, MEAN",[8],77.54 % of basal levels
same,5-HIAA release (% of basal levels) measured in dialysates,[8],91.08 % of basal levels and 55.23 % of basal levels and 70.28 % of basal levels and 91.20 % of basal levels and 65.52 % of basal levels and 74.09 % of basal levels and 86.17 % of basal levels and 86.73 % of basal levels
same,"5-HIAA release (% of basal levels) measured in dialysates, MEAN",[9],71.99 % of basal levels
same,5-HIAA release (% of basal levels) measured in dialysates,[9],82.54 % of basal levels and 68.32 % of basal levels and 64.58 % of basal levels and 71.77 % of basal levels and 60.86 % of basal levels and 67.49 % of basal levels and 79.74 % of basal levels and 80.63 % of basal levels
same,"5-HIAA release (% of basal levels) measured in dialysates, MEAN",[10],72.53 % of basal levels
same,5-HIAA release (% of basal levels) measured in dialysates,[10],84.10 % of basal levels and 66.07 % of basal levels and 66.30 % of basal levels and 74.75 % of basal levels and 64.08 % of basal levels and 74.08 % of basal levels and 79.04 % of basal levels and 71.85 % of basal levels
same,"5-HIAA release (% of basal levels) measured in dialysates, MEAN",[11],73.41 % of basal levels
same,5-HIAA release (% of basal levels) measured in dialysates,[11],83.14 % of basal levels and 67.51 % of basal levels and 58.65 % of basal levels and 82.71 % of basal levels and 65.19 % of basal levels
same,"5-HIAA release (% of basal levels) measured in dialysates, MEAN",[12],69.60 % of basal levels
same,5-HIAA release (% of basal levels) measured in dialysates,[12],74.73 % of basal levels and 64.32 % of basal levels and 54.46 % of basal levels and 81.53 % of basal levels and 68.15 % of basal levels and 73.95 % of basal levels and 70.08 % of basal levels
same,"5-HIAA release (% of basal levels) measured in dialysates, MEAN","SON-117 3 mg/kg IP, T-30 min-T0 (pre-administration)",102.90 % of basal levels
same,"5-HIAA release (% of basal levels) measured in dialysates, MEAN","SON-117 3 mg/kg IP, T-1 h 30-T-1 h (pre-administration)",94.73 % of basal levels
same,"5-HIAA release (% of basal levels) measured in dialysates, MEAN","SON-117 3 mg/kg IP, T-1 h-T-30 min (pre-administration)",102.37 % of basal levels
same,"5-HIAA concentration in prefrontal cortex, significant and stable decrease, max.","SON-117 3 mg/kg IP, from 2 h to 7 h",72%
same,levels of 5-HIAA compared to the citalopram treated group (significant),"SON-117 3 mg/kg, at 3 h and 3.5 h",higher
same,5-HIAA (% of respective basal) MEAN,T0-T30 min,94.78 % of respective basal
same,5-HIAA (% of respective basal) MEAN,T30-T1 h,114.88 % of respective basal
same,5-HIAA (% of respective basal) MEAN,T1 h 30-T2 h,102.18 % of respective basal
same,5-HIAA (% of respective basal) MEAN,T1 h-T1 h 30,119.57 % of respective basal
same,5-HIAA (% of respective basal) MEAN,T2 h 30-T3 h,94.10 % of respective basal
same,5-HIAA (% of respective basal) MEAN,T2 h-T2 h 30,92.09 % of respective basal
same,5-HIAA (% of respective basal) MEAN,T3 h 30-T4 h,94.62 % of respective basal
same,5-HIAA (% of respective basal) MEAN,T3 h-T3 h 30,92.14 % of respective basal
same,5-HIAA (% of respective basal) MEAN,T4 h 30-T5 h,97.11 % of respective basal
same,5-HIAA (% of respective basal) MEAN,T4 h-T4 h 30,108.99 % of respective basal
same,5-HIAA (% of respective basal) MEAN,T5 h 30-T6 h,90.37 % of respective basal
same,5-HIAA (% of respective basal) MEAN,T5 h-T5 h 30,96.07 % of respective basal
same,5-HIAA (% of respective basal) MEAN,T6 h 30-T7 h,92.61 % of respective basal
same,5-HIAA (% of respective basal) MEAN,T6 h-T6 h 30,92.22 % of respective basal
same,5-HIAA (% of respective basal) MEAN,T-30 min-T0 (before administration),101.47 % of respective basal
same,5-HIAA (% of respective basal) MEAN,T-1 h 30-T-1 h (before administration),98.52 % of respective basal
same,5-HIAA (% of respective basal) MEAN,T-1 h-T-30 min (before administration),100.01 % of respective basal
